In US20260374836A1, “PALMITOYLATED ANALOGUE OF PROLACTIN-RELEASING PEPTIDE FOR INTRANASAL ADMINISTRATION” (USTAV ORGANICKE CHEMIE A BIOCHEMIE AKADEMIE VED CR, V. V. I., priority 2022, published 2026):
Entries after “also recorded” stand apart in the source; their conditions may differ. Numbered stars: 1 amine (or outer) side, 2 acyl side, 3 side chain; on linkers, the order of the positions; unused ones are H or OH. Side chains are listed from the residue outwards. Ends that are not written are not given here. Peptide text beside a SMILES is read from it. * marks the point of attachment. γGlu = O=C(O)[C@H](CCC(=O)[*:2])N[*:1]; Palmitoyl = CCCCCCCCCCCCCCCC(=O)*

Experiments:
[1] = background statement; cited from earlier work
fasted C57BL/6 mice = test: food intake test in fasted mice after SC or IN administration; assay type: in vivo, mouse (C57BL/6); conditions: for food intake: fasted mice
Experimental: Male mice of strain C57BL/6 (Charles River, Germany) were kept in the accredited animal facility of the Institute of Organic Chemistry and Biochemistry of the Academy of Sciences of the Czech Republic (CAS), Prague in the facility of the Academy of Sciences in Krč at a temperature of 22±2 °C and had free access to food and tap water. The rhythm of light/dark was 12/12 h (light onset 6:00). The animals were treated according to the Act on the Protection of Animals against Cruelty (Czech Act No. 246/1992 Coll.). Males were fed a standard Ssniff R/M-H diet (Ssniff Spezialdiäten GmbH, Soest, Germany). 16 h before the application of palm^11-PrRP31, the mice were fasted with free access to water. Application of saline and palm^11-PrRP31 after dissolution in saline was performed by SC at 5 mg/kg (volume 0.15 ml/mouse) or IN using a fine-tip pipette at 0.01 and 0.1 mg/kg (5 μl/mouse). Twenty minutes after peptide injection, mice were given pre-weighed food. The food was then weighed every 30 minutes for 7 hours. The experiment was performed at least twice for each dose of palm^11-PrRP31 and one group of mice consisted of at least 6 mice. The results are expressed as a percentage of food intake compared to the saline-injected control group.
Graph-Pad Prism Software (San Diego, CA, USA), one-way ANOVA followed by Dunnett's post-hoc test was used for statistical evaluation. Differences in food intake between individuals injected with saline (control) and those injected with palm^11-PrRP31 were considered statistically significant at P<0.05.

obese WKY rats = test: change in weight after chronic (30 days) IP or IN administration to obese WKY rats on high-fat diet; assay type: in vivo, rat (Wistar Kyoto; conditions: for weight change: obese WKY rats on HFD, 30 days
Experimental: (§1) Male WKY rats (Charles River, Germany) were kept in the accredited animal facility of the Institute of Physiology of the CAS, v.v.i., Prague, in the facility of the Academy of Sciences in Krč at a temperature of 22±2 °C and had free access to food and tap water. The light/dark rhythm was 12/12 hours (light onset 4:00). The animals were treated according to the Act on the Protection of Animals against Cruelty (Act No. 246/1992 Coll.). Males were fed a high-fat diet D12492 (Research Diets, USA) containing 60% fat, 20% protein and 20% carbohydrate. From 8 weeks of age, they were fed this diet for 4 months. They were then divided into groups of 5 animals (IP administration of saline or palm^11-PrRP31 in saline at 5 mg/kg) or 8 animals (IN administration of saline or palm^11-PrRP31 in saline at 0.3 mg/kg). The compound was administered IP or IN once daily 1 hour before lights out for 30 days. Throughout the period, the weight of the rats was monitored 3 times a week and at the end, glycated hemoglobin was measured in blood drawn from the tail. Glycated hemoglobin (HbAlc) was determined using the Tina-quant HbAlc Gen. 3 kit (Roche, Mannheim, Germany).
(§2) Graph-Pad Prism Software (San Diego, CA, USA), one-way ANOVA followed by Dunnett's post-hoc test was used for statistical evaluation. Differences in food intake between individuals injected with saline and those injected with palm^11-PrRP31 were considered statistically significant at P<0.05.

[2] = test system: glycated hemoglobin (HbAlc); test: glycated hemoglobin (HbA1c) in obese WKY rats after 30 days of treatment; assay type: in vivo, rat (Wistar Kyoto; conditions: obese WKY rats on HFD
Experimental: as §1, §2

obese C57BL/6 mice = test: change in weight after chronic (14 days) SC or IN administration to obese C57BL/6 mice on high-fat diet; assay type: in vivo, mouse (C57BL/6); conditions: for body weight change: obese C57BL/6 mice on HFD
Experimental: (§3) Male C57BL/6 mice (Charles River, Germany) were kept in the accredited animal facility of the Institute of Organic Chemistry and Biochemistry of the CAS, Prague, in the facility of the Academy of Sciences in Krč at a temperature of 22±2 °C and had free access to food and tap water. The light/dark rhythm was 12/12 hours (light onset 4:00). The animals were treated according to the Act on the Protection of Animals against Cruelty (Act No. 246/1992 Coll.). Males were fed at-house-made high-fat diet containing 60% fat (lard), 20% protein and 20% carbohydrate. From 8 weeks of age, they were fed this diet for 4 months. They were then divided into groups of 6 animals (SC administration of saline or palm^11-PrRP31 in saline at 5 mg/kg and IN administration of saline or palm^11-PrRP31 in saline at 0.3 mg/kg). The compound was administered SC or IN twice daily 1 hour before lights out for 14 days. Throughout the period, the weight of the mice was monitored 3 times a week.
as §2

blood glucose [3] = test: blood glucose after repeated administration to obese WKY rats on high-fat diet; assay type: in vivo, rat (Wistar Kyoto; conditions: obese WKY rats on HFD, IN 0.3 mg/kg repeated, same extent as IP 5 mg/kg
Experimental: as §1

blood glucose [4] = test: blood glucose after repeated administration to obese C57BL/6N mice on high-fat diet; assay type: in vivo, mouse (C57BL/6N); conditions: obese C57BL/6N mice on HFD, IN 0.3 mg/kg repeated
Experimental: as §3, with “They were then divided into groups of 6 animals (SC administration of saline or palm^11-PrRP31 in saline at 5 mg/kg and IN administration of saline or palm^11-PrRP31 in saline at 0.3 mg/kg).” left out

GPR10 = conditions: previous studies (EP 3094643); cited from earlier work
[5] = test system: mouse and rat models of high-fat diet-induced obesity; conditions: chronic peripheral administration; cited from earlier work
rats = conditions: intracerebroventricular (ICV); cited from earlier work
[6] = IN 0.3 mg/kg once daily, listed as Palm^11-PrRP31

In the case of `CCCCCCCCCCC[C@@H](C[C@@H]1OC(=O)[C@H]1CCCCCC)OC(=O)[C@H](CC(C)C)NC=O` [Orlistat], the side effects [1] is listed as “diarrhea”.

In the case of `CC(C)CC(N(C)C)C1(c2ccc(Cl)cc2)CCC1` (stereo not drawn) [Sibutramine], the side effects [1] is listed as “increase the risk of heart disease”.

In the case of `CCCCCCCCCCCCCCCC(=O)N[C@@H](CCC(=O)NCCCC[C@H](NC(=O)[C@@H](NC(=O)[C@H](CCC(=O)O)NC(=O)[C@H](CCSC)NC(=O)[C@H](CO)NC(=O)[C@H](Cc1c[nH]cn1)NC(=O)[C@H](CCCNC(=N)N)NC(=O)[C@H](Cc1c[nH]cn1)NC(=O)[C@@H](NC(=O)[C@H](CCCNC(=N)N)NC(=O)[C@@H](N)CO)[C@@H](C)O)[C@@H](C)CC)C(=O)N[C@H](C(=O)N1CCC[C@H]1C(=O)N[C@@H](CC(=O)O)C(=O)N[C@H](C(=O)N[C@@H](CC(N)=O)C(=O)N1CCC[C@H]1C(=O)N[C@@H](C)C(=O)N[C@@H](Cc1c[nH]c2ccccc12)C(=O)N[C@@H](Cc1ccc(O)cc1)C(=O)N[C@@H](C)C(=O)N[C@@H](CO)C(=O)N[C@@H](CCCNC(=N)N)C(=O)NCC(=O)N[C@H](C(=O)N[C@@H](CCCNC(=N)N)C(=O)N1CCC[C@H]1C(=O)N[C@H](C(=O)NCC(=O)N[C@@H](CCCNC(=N)N)C(=O)N[C@@H](Cc1ccccc1)C(N)=O)C(C)C)[C@@H](C)CC)[C@@H](C)CC)[C@@H](C)O)C(=O)O` [palm^11-PrRP31] (H-SRTHRHSMEIK([γGlu-Palmitoyl])TPDINPAWYASRGIRPVGRF-NH2), the “significance P vs. saline, cumulative food intake” value (fasted C57BL/6 mice; FIG. 1, SC 5 mg/kg, IN 0.01 and 0.1 mg/kg, ANOVA, Dunnett's) is reported as under 0.001, the “IN dose relative to SC dose for the same reduction in food intake, in words” value (fasted C57BL/6 mice; IN 0.01 and 0.1 mg/kg vs. SC 5 mg/kg) is reported as “an order of magnitude lower dose” and the “IN dose lower than SC dose to achieve the same effect on food intake” value (fasted C57BL/6 mice; IN vs. SC, feeding test in mice) is reported as 1-2 orders of magnitude. The food intake (fasted C57BL/6 mice; IN 0.01 mg/kg, vs. saline / SC 5 mg/kg) was “same reduction in food intake; also recorded: significantly reduced food intake”, the food intake (fasted C57BL/6 mice; IN 0.01 mg/kg, vs. saline / SC 5 mg/kg, listed as Palm^11-PrRP31) was “reduced food intake in fasted mice very significantly and over a long period of time, to the same extent” and the food intake (fasted C57BL/6 mice; IN 0.1 mg/kg, vs. saline / SC 5 mg/kg) was “same reduction in food intake; also recorded: significantly reduced food intake”. The food intake (fasted C57BL/6 mice; IN 0.1 mg/kg, vs. saline / SC 5 mg/kg, listed as Palm^11-PrRP31) was “reduced food intake in fasted mice very significantly and over a long period of time, to the same extent”, the food intake (fasted C57BL/6 mice; SC 5 mg/kg, vs. saline, 5 mg/kg) was “highly significant (P<0.001) reduction in food intake; also recorded: significantly reduced food intake” and the food intake (fasted C57BL/6 mice; SC 5 mg/kg, vs. saline, listed as Palm^11-PrRP31, 5 mg/kg) was “reduced food intake in fasted mice very significantly and over a long period of time”. For the same compound, the “significance P vs. saline, change in weight” value (obese WKY rats; FIG. 2, IN 0.3 mg/kg, IP 5 mg/kg, ANOVA, Dunnett's) was under 0.001, the “IN dose lower than IP dose for the same weight reduction” value (obese WKY rats; IN 0.3 mg/kg vs. IP dose, rats) was 16 times lower and the weight change (obese WKY rats; IN 0.3 mg/kg once daily) was “reduced weight; also recorded: highly significant weight reduction”. For the same compound, the weight change (obese WKY rats; [6]) was “reduced the weight of rats after chronic administration to the same extent”, the weight change (obese WKY rats; IP 5 mg/kg once daily, 5 mg/kg) was “highly significant weight reduction” and the weight change (obese WKY rats; IP 5 mg/kg once daily, listed as Palm^11-PrRP31, 5 mg/kg) was “reduced the weight of rats after chronic administration to the same extent”. For the same compound, the “glycated hemoglobin (HbAlc)” value ([2]; IN 0.3 mg/kg once daily) was “significant decrease in blood glycated hemoglobin”, the “glycated hemoglobin (HbAlc)” value [2, 6] was “significantly reduced glycated hemoglobin” and the “glycated hemoglobin (HbAlc)” value ([2]; IP 5 mg/kg once daily) was “significantly reduced glycated hemoglobin”. For the same compound, the “significance P vs. saline, change in weight” value (obese C57BL/6 mice; FIG. 4, IN 0.3 mg/kg, SC 5 mg/kg twice daily, ANOVA, Dunnett's) was under 0.001, the body weight change (obese C57BL/6 mice; IN 0.3 mg/kg (twice daily, 14 days)) was “reduced weight; also recorded: highly significant weight reduction” and the body weight change (obese C57BL/6 mice; IN 0.3 mg/kg (twice daily, 14 days), listed as Palm^11-PrRP31) was “highly significant weight reduction”. For the same compound, the body weight change (obese C57BL/6 mice; SC 5 mg/kg twice daily, 14 days) was “highly significant weight reduction”, the blood glucose (blood glucose [3]) was “decreased blood glucose” and the blood glucose (blood glucose [4]) was “decreased blood glucose”. For the same compound, the “potency among analogues of PrRP31” value (GPR10) was “most potent analogue of the natural peptide PrRP31” and the “anti-obesity and anti-diabetic effects” value [5] was “anti-obesity and anti-diabetic effects”.

For “PrRP31: natural prolactin-releasing peptide form containing 31 amino acids (SRTHRHSMEIRTPDINPAWYASRGIRPVGRF; ends and bridges not checked; UniProt P81277 23-53, looked up)”, the food intake (rats) is listed as “significant short-term reduction in food intake” and the weight (rats) is listed as “weight loss”.
